This note sets out measurements from US11168073B2, “3,3-difluoroallylamines or salts thereof and pharmaceutical compositions comprising the same” (YUHAN CORPORATION, priority 2018, dated 2021).

Assay type in all cases: biochemical
Experiment [1] addresses T1, recombinant human MAO-A (monoamine oxidase-A) (Homo sapiens, UniProt P21397).
T1 construct: purchased Sigma-Aldrich
T1 sequence (P21397 1-527): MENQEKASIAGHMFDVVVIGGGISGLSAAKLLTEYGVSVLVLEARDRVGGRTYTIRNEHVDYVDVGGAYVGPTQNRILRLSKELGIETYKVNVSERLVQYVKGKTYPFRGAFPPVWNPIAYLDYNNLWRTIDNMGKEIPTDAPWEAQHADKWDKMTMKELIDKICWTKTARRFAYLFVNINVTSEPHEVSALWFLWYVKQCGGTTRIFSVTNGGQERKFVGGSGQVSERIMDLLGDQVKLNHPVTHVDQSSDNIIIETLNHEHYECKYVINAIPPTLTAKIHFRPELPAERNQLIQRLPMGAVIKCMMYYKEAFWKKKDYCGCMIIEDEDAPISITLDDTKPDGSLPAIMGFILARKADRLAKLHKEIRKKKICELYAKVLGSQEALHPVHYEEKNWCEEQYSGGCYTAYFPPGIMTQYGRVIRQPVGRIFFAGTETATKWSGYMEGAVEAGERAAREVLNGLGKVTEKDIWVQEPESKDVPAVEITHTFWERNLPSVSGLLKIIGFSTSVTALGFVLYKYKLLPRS
The experiment can be described thus: Activity evaluation on recombinant human MAO-A (Amplex Red/HRP-coupled assay, 0.5 mM tyramine substrate). Conditions: read-out: Inhibitory Activity (IC50, nM) MAO-A. The essentials:
(§1)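 Enzyme was preincubated with compounds (8-point 1:3 series, final DMSO <1%) 30 min at 37 °C in 50 mM sodium phosphate pH 7.4, then given 200 uM Amplex Red and 1 U/mL HRP with substrate. H2O2-derived resorufin fluorescence (ex 544/em 590 nm) was followed over 1–2 h; IC50 came from 4-parameter logistic fits of signal-rate inhibition versus DMSO control.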

Experiment [2] addresses T2, recombinant human DAO (diamine oxidase) (Homo sapiens, UniProt P19801).
T2 construct: purchased R&D systems
T2 sequence (P19801 20-751): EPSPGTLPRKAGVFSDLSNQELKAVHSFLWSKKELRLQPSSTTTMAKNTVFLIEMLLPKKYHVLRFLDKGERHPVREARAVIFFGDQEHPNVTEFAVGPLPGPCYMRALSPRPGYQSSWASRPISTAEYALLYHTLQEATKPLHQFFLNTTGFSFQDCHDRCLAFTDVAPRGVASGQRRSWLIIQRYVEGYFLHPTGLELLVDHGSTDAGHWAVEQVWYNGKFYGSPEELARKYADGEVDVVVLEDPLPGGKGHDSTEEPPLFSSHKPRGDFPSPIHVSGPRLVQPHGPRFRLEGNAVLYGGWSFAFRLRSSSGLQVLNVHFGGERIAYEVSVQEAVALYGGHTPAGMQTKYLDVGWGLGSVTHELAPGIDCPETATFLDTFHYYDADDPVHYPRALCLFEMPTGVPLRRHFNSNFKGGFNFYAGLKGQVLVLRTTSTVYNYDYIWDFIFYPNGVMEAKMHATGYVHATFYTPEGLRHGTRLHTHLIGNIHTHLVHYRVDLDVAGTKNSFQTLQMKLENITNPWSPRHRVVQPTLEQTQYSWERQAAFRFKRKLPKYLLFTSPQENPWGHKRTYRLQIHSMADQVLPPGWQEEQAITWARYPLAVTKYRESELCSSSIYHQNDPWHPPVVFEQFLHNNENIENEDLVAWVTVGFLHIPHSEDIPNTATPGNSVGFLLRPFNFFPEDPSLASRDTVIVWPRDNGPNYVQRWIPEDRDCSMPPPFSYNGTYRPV
Nature of the experiment: Activity evaluation on recombinant human DAO (Amplex Red/HRP-coupled assay, 1 mM putrescine substrate). Conditions: read-out: Inhibitory Activity (IC50, nM) DAO. The essentials: as §1

A further experiment concerns the target T3, recombinant human VAP-1 (Homo sapiens, UniProt Q16853).
T3 construct: purchased R&D systems
T3 sequence (Q16853 1-763): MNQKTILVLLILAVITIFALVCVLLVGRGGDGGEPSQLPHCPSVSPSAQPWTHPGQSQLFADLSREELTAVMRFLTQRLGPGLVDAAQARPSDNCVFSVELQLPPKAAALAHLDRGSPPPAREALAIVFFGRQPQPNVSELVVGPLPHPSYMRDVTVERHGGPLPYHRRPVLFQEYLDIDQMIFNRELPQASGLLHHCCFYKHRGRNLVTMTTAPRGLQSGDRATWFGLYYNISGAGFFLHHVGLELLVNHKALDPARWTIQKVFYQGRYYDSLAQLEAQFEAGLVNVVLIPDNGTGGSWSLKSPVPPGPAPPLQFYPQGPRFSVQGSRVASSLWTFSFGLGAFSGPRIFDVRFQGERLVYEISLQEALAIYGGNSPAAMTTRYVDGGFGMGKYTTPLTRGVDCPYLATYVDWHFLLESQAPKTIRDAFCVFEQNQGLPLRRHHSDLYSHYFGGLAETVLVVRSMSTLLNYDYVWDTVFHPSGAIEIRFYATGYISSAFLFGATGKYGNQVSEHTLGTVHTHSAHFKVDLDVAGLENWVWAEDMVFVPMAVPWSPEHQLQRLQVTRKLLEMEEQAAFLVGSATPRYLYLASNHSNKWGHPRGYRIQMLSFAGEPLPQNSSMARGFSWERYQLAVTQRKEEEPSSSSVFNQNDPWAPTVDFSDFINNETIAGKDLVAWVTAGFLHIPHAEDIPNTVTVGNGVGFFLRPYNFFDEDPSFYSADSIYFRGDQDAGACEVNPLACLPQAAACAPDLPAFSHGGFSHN
The experiment can be described thus: Activity evaluation on recombinant human VAP-1 (Amplex Red/HRP-coupled hydrogen peroxide assay, benzylamine substrate). Conditions: read-out: Inhibitory Activity (IC50, nM) human VAP-1. The essentials: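 Recombinant human VAP-1 in 50 mM sodium phosphate pH 7.4 preincubated 30 min at 37 °C with compound (8-point 1:3 series, <1% DMSO), then 1 mM benzylamine, 200 uM Amplex Red, 1 U/mL HRP added. H2O2-derived resorufin fluorescence (ex 544/em 590) followed 1–2 h; IC50 from four-parameter fit of rate inhibition.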

The target of experiment [3] is T4, recombinant human MAO-B (monoamine oxidase-B) (Homo sapiens, UniProt P27338).
T4 construct: purchased Sigma-Aldrich
T4 sequence (P27338 1-520): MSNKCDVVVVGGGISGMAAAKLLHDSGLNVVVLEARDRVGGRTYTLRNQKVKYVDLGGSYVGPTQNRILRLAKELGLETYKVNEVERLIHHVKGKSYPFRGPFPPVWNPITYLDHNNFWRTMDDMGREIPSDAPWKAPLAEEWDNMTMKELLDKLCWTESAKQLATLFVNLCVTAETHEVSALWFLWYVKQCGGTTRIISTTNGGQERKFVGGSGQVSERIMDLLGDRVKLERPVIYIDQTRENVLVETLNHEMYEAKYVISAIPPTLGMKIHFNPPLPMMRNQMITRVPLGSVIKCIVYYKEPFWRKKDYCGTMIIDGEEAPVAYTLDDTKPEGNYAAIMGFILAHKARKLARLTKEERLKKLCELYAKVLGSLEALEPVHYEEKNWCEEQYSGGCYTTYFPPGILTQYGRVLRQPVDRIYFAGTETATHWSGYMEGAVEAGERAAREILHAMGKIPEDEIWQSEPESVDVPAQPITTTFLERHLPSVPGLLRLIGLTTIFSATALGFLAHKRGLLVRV
The experiment can be described thus: Activity evaluation on recombinant human MAO-B (Amplex Red/HRP-coupled assay, 1 mM benzylamine substrate). The conditions noted are these: read-out: Inhibitory Activity (IC50, nM) MAO-B. The essentials:
as §1

Setting [4] is: recombinant human VAP-1, 30 min preincubation at 37° C., 1 mM benzylamine.
Setting [5] is: recombinant human VAP-1, benzylamine substrate.

Counter-ions that a name gives are not always drawn. Like-named read-outs stand apart in the source and are kept apart here.

As a reminder, the IC50 is the midpoint of a concentration-inhibition curve. With `NCC(Cn1ncn(-c2ccc(-c3ccc4c(c3)OCO4)nc2)c1=O)=C(F)F` [Example 42, 2-[2-(aminomethyl)-3,3-difluoro-allyl]-4-[6-(1,3-benzodioxol-5-yl)-3-pyridyl]-1,2,4-triazol-3-one Trifluoroacetate], the IC50 in experiment [1] (0.5 mM tyramine) is greater than 100000 nM; in experiment [2] (1 mM putrescine) it was 250 nM; on recombinant human VAP-1 (setting [4]) it was 0.3 nM; in experiment [3] (1 mM benzylamine), 34 nM.

For `CCn1cc(-c2cccc(-c3csc(Cn4cnn(CC(CN)=C(F)F)c4=O)c3)c2)cn1` [Example 289, 2-[2-(aminomethyl)-3,3-difluoro-allyl]-4-[[4-[3-(1-ethylpyrazol-4-yl)phenyl]-2-thienyl]methyl]-1,2,4-triazol-3-one Trifluoroacetate], the IC50 is greater than 100000 nM in experiment [1] (0.5 mM tyramine substrate), 14500 nM in experiment [2] (1 mM putrescine substrate), 0.6 nM at recombinant human VAP-1 (setting [5]) and 12000 nM in experiment [3] (1 mM benzylamine substrate).

Turning to `NCC(Cn1ncn(Cc2cc(-c3ccc4c(c3)CCC(=O)N4)cs2)c1=O)=C(F)F` [Example 192, 6-[5-[[1-[2-(aminomethyl)-3,3-difluoro-allyl]-5-oxo-1,2,4-triazol-4-yl]methyl]-3-thienyl]-3,4-dihydro-1H-quinolin-2-one Trifluoroacetate], the IC50 in experiment [1] (0.5 mM tyramine substrate) is greater than 100000 nM; in experiment [2] (1 mM putrescine substrate), 22000 nM; on recombinant human VAP-1 (setting [5]), 0.4 nM; in experiment [3] (1 mM benzylamine substrate), 56000 nM.

Regarding `NCC(Cn1ncn(-c2ccc(-c3ccc(N4CCNCC4)cc3)cc2F)c1=O)=C(F)F` [Example 32, 2-[2-(aminomethyl)-3,3-difluoro-allyl]-4-[2-fluoro-4-(4-piperazin-1-ylphenyl)phenyl]-1,2,4-triazol-3-one Ditrifluoroacetate], the IC50 in experiment [1] (0.5 mM tyramine) was greater than 100000 nM; in experiment [2] (1 mM putrescine) it was 670 nM; on recombinant human VAP-1 (setting [4]) it was 1.3 nM; in experiment [3] (1 mM benzylamine), 17000 nM.

In the case of `COc1ccc(-c2cnc(-n3cnn(CC(CN)=C(F)F)c3=O)c(C)c2)cn1` [Example 225, 2-[2-(aminomethyl)-3,3-difluoro-allyl]-4-[5-(6-methoxy-3-pyridyl)-3-methyl-2-pyridyl]-1,2,4-triazol-3-one Trifluoroacetate], the IC50 is greater than 100000 nM in experiment [1] (0.5 mM tyramine substrate), 14000 nM in experiment [2] (1 mM putrescine substrate), 0.5 nM at recombinant human VAP-1 (setting [5]) and 1600 nM in experiment [3] (1 mM benzylamine substrate).

As for `NCC(Cn1ncn(Cc2ccc(-c3ccc(N4CCNCC4)cc3)cc2)c1=O)=C(F)F` [Example 266, 2-[2-(aminomethyl)-3,3-difluoro-allyl]-4-[[4-(4-piperazin-1-ylphenyl)phenyl]methyl]-1,2,4-triazol-3-one Ditrifluoroacetate], the IC50 was greater than 100000 nM in experiment [1] (0.5 mM tyramine substrate), 330 nM in experiment [2] (1 mM putrescine substrate), 9.1 nM on recombinant human VAP-1 (setting [5]) and greater than 100000 nM in experiment [3] (1 mM benzylamine substrate).

Take `CN1C(=O)CCc2cc(-c3ccccc3Cn3cnn(CC(CN)=C(F)F)c3=O)ccc21` [Example 284, 6-[2-[[1-[2-(aminomethyl)-3,3-difluoro-allyl]-5-oxo-1,2,4-triazol-4-yl]methyl]phenyl]-1-methyl-3,4-dihydroquinolin-2-one trifluoroacetate]: the IC50 in experiment [1] (0.5 mM tyramine substrate) is greater than 100000 nM; in experiment [2] (1 mM putrescine substrate), 66400 nM; on recombinant human VAP-1 (setting [5]) it was 148 nM; in experiment [3] (1 mM benzylamine substrate) it was greater than 100000 nM.

Regarding `NCC(Cn1ncn(-c2cccc(-c3ccc(C(F)(F)F)nc3)c2)c1=O)=C(F)F` [Example 19, 2-[2-(aminomethyl)-3,3-difluoro-allyl]-4-[3-[6-(trifluoromethyl)-3-pyridyl]phenyl]-1,2,4-triazol-3-one Trifluoroacetate], the IC50 in experiment [1] (0.5 mM tyramine) was greater than 100000 nM; in experiment [2] (1 mM putrescine), 240 nM; at recombinant human VAP-1 (setting [4]), 5.3 nM; in experiment [3] (1 mM benzylamine), greater than 10000 nM.

Take `CN1C(=O)CCc2cc(-c3ccc4sc(Cn5cnn(CC(CN)=C(F)F)c5=O)cc4c3)ccc21` [Example 211, 6-[2-[[1-[2-(aminomethyl)-3,3-difluoro-allyl]-5-oxo-1,2,4-triazol-4-yl]methyl]benzothiophen-5-yl]-1-methyl-3,4-dihydroquinolin-2-one Trifluoroacetate]: the IC50 in experiment [1] (0.5 mM tyramine substrate) came out at 38900 nM; in experiment [2] (1 mM putrescine substrate), 1860 nM; at recombinant human VAP-1 (setting [5]), 1.1 nM; in experiment [3] (1 mM benzylamine substrate) it was 42700 nM.

`NCC(Cn1ncn(-c2cccc(-c3ccc4c(c3)OCO4)n2)c1=O)=C(F)F` [Example 50, 2-[2-(aminomethyl)-3,3-difluoro-allyl]-4-[6-(1,3-benzodioxol-5-yl)-2-pyridyl]-1,2,4-triazol-3-one Trifluoroacetate]: the IC50 in experiment [1] (0.5 mM tyramine) is greater than 100000 nM; in experiment [2] (1 mM putrescine), 1200 nM; at recombinant human VAP-1 (setting [4]), 1.5 nM; in experiment [3] (1 mM benzylamine) it was 13000 nM.

For `Cc1cc(C#Cc2ccc3c(c2)CCC(=O)N3)cnc1-n1cnn(CC(CN)=C(F)F)c1=O` [Example 249, 6-[2-[6-[1-[2-(aminomethyl)-3,3-difluoro-allyl]-5-oxo-1,2,4-triazol-4-yl]-5-methyl-3-pyridyl]ethynyl]-3,4-dihydro-1H-quinolin-2-one Trifluoroacetate], the IC50 is greater than 100000 nM in experiment [1] (0.5 mM tyramine substrate), 3900 nM in experiment [2] (1 mM putrescine substrate), 0.9 nM at recombinant human VAP-1 (setting [5]) and 3100 nM in experiment [3] (1 mM benzylamine substrate).
